Test results as given in the Deep4Chem optical property database.
Values joined by “and” are separate entries in the source; they are usually repeats but may differ in a detail not shown here. Identical values can stand only once.

Experiment: solvent given as SMILES

COc1cc2cc(/C=C/c3ccc(/C=C/c4ccc(/C=C(\C#N)C(=O)O)cc4)cc3)c(=O)oc2cc1OC
absorption maximum (in CC#N): 415 nm

O=c1[nH]nc(-c2ccc(/C=C/c3ccc(-c4n[nH]c(=O)o4)cc3)cc2)o1
absorption maximum (in CN(C)C=O): 334 nm

CC1=[N+]2C(=C(c3ccccc3)c3ccc(/C=C/c4ccc(C(=C(c5ccccc5)c5ccccc5)c5ccccc5)cc4)n3[B-]2(F)F)C=C1
absorption maximum (in C1CCOC1): 585 nm

CC(=O)c1c(N[C@@H](Cc2ccc(O)cc2)C(=O)O)c2ccc(N(C)C)cc2oc1=O
absorption maximum (in ClCCl): 368 nm

Cc1cc(-c2ccccc2)nc2c1ccc1nc(-c3ccccc3)cn12
absorption maximum (in CC#N): 347 nm | absorption maximum (in CCCCOC(C)=O): 350 nm | absorption maximum (in CCOC(C)=O): 352 nm | absorption maximum (in CO): 345 nm | absorption maximum (in ClC(Cl)Cl): 350 nm | absorption maximum (in ClCCl): 348 nm | absorption maximum (in c1ccccc1): 351 nm

Cc1cc(-c2nc(-c3ccccc3)nc(-c3ccccc3)n2)c(C)cc1-c1ccc2c(c1)C1(c3ccccc3-c3ccccc31)c1ccccc1N2c1ccccc1
absorption maximum (in c1cc(-c2cccc(-n3c4ccccc4c4ccccc43)c2)cc(-n2c3ccccc3c3ccccc32)c1): 363.44 nm

Cc1cccc(-c2nc3sc4ccccc4c3s2)c1
absorption maximum (in CS(C)=O): 348 nm

N#Cc1c(N2CCCCC2)cc(-c2ccc3ccccc3c2)c2c1Cc1ccccc1-2
absorption maximum (in C1CCOC1): 362 nm

Nc1cccc2cc3ccccc3cc12
absorption maximum (in C1CCCCC1): 384.17 nm

CC1(C)CCc2c(c3ccccc3c3nc4ccccc4nc23)O1
absorption maximum (in C1CCCCC1): 429.92 nm | absorption maximum (in C1CCOC1): 434.03 nm | absorption maximum (in CN(C)C=O): 438.98 nm | absorption maximum (in CO): 434.97 nm | absorption maximum (in ClC(Cl)Cl): 437.06 nm | absorption maximum (in c1ccccc1): 431.03 nm

CCSSCC
absorption maximum (in CCCCCC): 250 nm

F[B-]1(F)n2cccc2C(c2ccc(-c3c4ccccc4c(-c4ccccc4)c4ccccc34)cc2)=C2C=CC=[N+]21
absorption maximum (in CC#N): 498 nm | absorption maximum (in CCCCCC): 501 nm | absorption maximum (in CCO): 500 nm | absorption maximum (in CN(C)C=O): 502 nm | absorption maximum (in Cc1ccccc1): 505 nm | absorption maximum (in ClCCl): 502 nm

CCOC(=O)c1sc(SC)c2c(=O)n(C)nnc12
absorption maximum (in C1CCOC1): 387.5 nm | absorption maximum (in CC#N): 388 nm | absorption maximum (in CCO): 391 nm | absorption maximum (in CN(C)C=O): 391.5 nm | absorption maximum (in CO): 391.5 nm | absorption maximum (in CS(C)=O): 393.5 nm

C[SiH](C)c1ccc([SiH](C)C)c2ccccc12
absorption maximum (in C1CCCCC1): 300 nm

COc1cc2c3c4c(c5ccc(C(C)(C)C)cc5c5cc(C(C)(C)C)cc(c2c(OC)c1OC)c45)=[N+]1C3=Nc2c3c4cc(OC)c(OC)c(OC)c4c4cc(C(C)(C)C)cc5c6cc(C(C)(C)C)ccc6c(c3c54)n2[B-]1(F)F
absorption maximum (in Cc1ccccc1): 826 nm

CCN(CC)c1ccc2cc(C#N)/c(=N\C(=O)c3ccc(C)cc3)oc2c1
absorption maximum (in CCO): 430 nm | absorption maximum (in ClCCl): 436 nm

CCCCCCCCCCCCN1C(=O)c2c(c3ccc4cc(-c5ccc(N(C)C)cc5)c(OC)cc4c3c3c2ccc2cc(-c4ccc(N(C)C)cc4)c(OC)cc23)C1=O
absorption maximum (in ClCCl): 477 nm

O=C1c2cc3ccccc3cc2C2=Nc3cccc[n+]3[B-](F)(F)N12
absorption maximum (in ClCCl): 396 nm

N#Cc1c(N2CCCCC2)cc(-c2ccc3ccccc3c2)c2c1-c1ccccc1C2
absorption maximum (in C1CCOC1): 362 nm

CCCC1(CCC)c2ccccc2-c2ccc(-c3ccc4c(c3)C(CCC)(CCC)c3cc(-c5ccc6c(c5)C(CCC)(CCC)c5ccccc5-6)ccc3-4)cc21
absorption maximum (in C1CCCCC1): 350 nm

CCC1(CC)c2cc(/C=C/c3ccc(/C=C/c4ccc5c(c4)C(CC)(CC)c4cc(N6c7ccccc7Sc7ccccc76)ccc4-5)cc3)ccc2-c2ccc(N3c4ccccc4Sc4ccccc43)cc21
absorption maximum (in C1CCOC1): 444.73 nm | absorption maximum (in CC#N): 441.5 nm | absorption maximum (in CCCCCC): 440.65 nm | absorption maximum (in Cc1ccccc1): 446.43 nm | absorption maximum (in ClCCl): 418 nm

CCCCCCCCCCCCOc1cc2c3cc(OCCCCCCCCCCCC)c(OCCCCCCCCCCCC)cc3c3c(cc(OCCCCCCCCCCCC)c4nc5cc(C#Cc6ccc(CCCCCCCCCC)cc6)c(C#Cc6ccc(CCCCCCCCCC)cc6)cc5nc43)c2cc1OCCCCCCCCCCCC
absorption maximum (in ClC(Cl)Cl): 482 nm

COc1ccc(-c2c3cc4ccccc4cc3c(-c3ccc(OC)cc3)c3cc4sc(C)cc4cc23)cc1
absorption maximum (in ClCCl): 550 nm

COc1cc(-c2cnc(-c3ccncc3)o2)cc(OC)c1OC
absorption maximum (in ClCCl): 332 nm

c1ccc2c(c1)Sc1ccccc1N2c1ccc2c(c1)C1(c3ccccc3-c3ccccc31)c1cc(N3c4ccccc4Sc4ccccc43)ccc1-2
absorption maximum (in Cc1ccccc1): 309 nm

CCOC(=O)c1cc(C(=O)OCC)c2ccc(O)cc2n1
absorption maximum (in CCO): 373 nm

c1ccc(-c2nc(-c3ccccc3)nc(-c3ccc(N4c5ccccc5[Si](c5ccccc5)(c5ccccc5)c5ccccc54)cc3)n2)cc1
absorption maximum (in Cc1ccccc1): 376.66 nm

Cc1nc(-c2cc(F)ccc2O)n2c1CCCC2
absorption maximum (in ClCCl): 326 nm

c1ccc(N(c2ccccc2)c2c3ccccc3cc3ccccc23)cc1
absorption maximum (in Cc1ccccc1): 428 nm

Cc1ccc2cc3c(=O)n(C)c(=O)n(C)c3nc2c1
absorption maximum (in CC#N): 353 nm | absorption maximum (in CC(C)O): 353 nm | absorption maximum (in CCO): 353 nm | absorption maximum (in CO): 352 nm | absorption maximum (in ClC(Cl)Cl): 355 nm | absorption maximum (in ClCCl): 355 nm

C[Si](C)(C)c1ccc(-c2ccc(-c3ccc(-c4ccc(-c5ccc([Si](C)(C)C)cc5)s4)c4nsnc34)s2)cc1
absorption maximum (in C1CCOC1): 495 nm

Cn1c(=O)cc(C(=O)c2ccccc2)c2sc(-c3ccc(OC(F)(F)F)cc3)cc21
absorption maximum (in CC#N): 394 nm | absorption maximum (in ClCCl): 400 nm

O=c1c2cc(-n3c4ccccc4c4ccccc43)ccc2sc2ccc(-n3c4ccccc4c4ccccc43)cc12
absorption maximum (in C1CCOC1): 408 nm | absorption maximum (in CCCCCC): 408 nm | absorption maximum (in Cc1ccccc1): 408 nm | absorption maximum (in ClC(Cl)Cl): 408 nm | absorption maximum (in ClCCl): 408 nm

F[B-]1(F)n2c(NCc3ccccc3)ccc2C(c2c(Cl)cccc2Cl)=C2C=CC(NCc3ccccc3)=[N+]21
absorption maximum (in CC#N): 578 nm | absorption maximum (in CCCCCC): 581 nm | absorption maximum (in CCOC(C)=O): 580 nm | absorption maximum (in CO): 579 nm | absorption maximum (in ClCCl): 581 nm

COc1cc(/C=C/c2cc(OC)c(-c3nc(-c4ccccc4)c(-c4ccccc4)[nH]3)cc2OC)c(OC)cc1/C=C/c1cc(OC)c(-c2nc(-c3ccccc3)c(-c3ccccc3)[nH]2)cc1OC
absorption maximum (in C1CCOC1): 444 nm | absorption maximum (in CC#N): 441 nm | absorption maximum (in Cc1ccccc1): 447 nm

Cc1nc2c(ccc3c2sc(/C=C/c2cc4c5c(c2)CCCN5CCC4)[n+]3C)s1
absorption maximum (in CO): 574 nm | absorption maximum (in ClC(Cl)Cl): 595 nm

O=c1cc(COc2ccc(I)cc2)c2c(ccc3ccccc32)o1
absorption maximum (in C1CCOC1): 349 nm | absorption maximum (in C1COCCO1): 348 nm | absorption maximum (in CC#N): 348 nm | absorption maximum (in CC(C)=O): 349 nm | absorption maximum (in CCCCO): 350 nm | absorption maximum (in CCCO): 350 nm | absorption maximum (in CCO): 350 nm | absorption maximum (in CCOC(C)=O): 348 nm | absorption maximum (in CN(C)C=O): 350 nm | absorption maximum (in CO): 348 nm | absorption maximum (in Cc1ccccc1): 350 nm | absorption maximum (in ClCCl): 349 nm

COc1ccc(-c2cccc3ncc(-c4ccc(C#N)cc4)n23)cc1
absorption maximum (in ClCCl): 329 nm

c1ccc(-c2c3c(cc4c2-c2ccccc2C4)-c2ccccc2C3)cc1
absorption maximum (in C1CCCCC1): 331 nm

Cc1cc(C)c(-c2nnc(-c3ccc(-n4c5ccccc5c5ccccc54)cc3)o2)c(C)c1
absorption maximum (in Cc1ccccc1): 340 nm

Cc1cc(=O)oc2cc3cc(O)ccc3cc12
absorption maximum (in CC#N): 343 nm | absorption maximum (in CCO): 357 nm

CCn1c2ccccc2c2cc(C#Cc3cc(C#Cc4ccc5c(c4)c4ccccc4n5CC)nc(SC)n3)ccc21
absorption maximum (in C1CCOC1): 396 nm | absorption maximum (in CCOC(C)=O): 392 nm | absorption maximum (in CN(C)C=O): 399 nm | absorption maximum (in Cc1ccccc1): 396 nm | absorption maximum (in ClCCl): 396 nm

CCCCCCCCN1C(=O)c2ccc3c4c(-c5ccc6c7ccccc7n(-c7ccccc7)c6c5)cc5c6c(ccc(c7c(-c8ccc9c%10ccccc%10n(-c%10ccccc%10)c9c8)cc(c2c37)C1=O)c64)C(=O)N(CCCCCCCC)C5=O
absorption maximum (in ClC(Cl)Cl): 577 nm

c1ccc(-c2nc(-c3ccccc3)nc(-c3ccc(-c4ccc(N5c6ccccc6[Si](c6ccccc6)(c6ccccc6)c6ccccc65)cc4)cc3)n2)cc1
absorption maximum (in Cc1ccccc1): 308 nm

CC1=CC(C)=[N+]2C1=C(c1ccccc1)c1c(C)c(-c3cccs3)c(C)n1[B-]2(F)F
absorption maximum (in CO): 507 nm | absorption maximum (in Cc1ccccc1): 513 nm | absorption maximum (in ClCCl): 511 nm

Cc1cccn2c1cc1c3ccccc3nc(-c3ccc(Cl)o3)c12
absorption maximum (in CS(C)=O): 405 nm

CC(C)(C)c1ccc2c(c1)c1cc(C(C)(C)C)ccc1n2-c1ccc(N(c2ccc(-c3ccc(-c4ccc(-c5ccc(-c6ccc(-c7ccc(N(c8ccc(-n9c%10ccc(C(C)(C)C)cc%10c%10cc(C(C)(C)C)ccc%109)cc8)c8ccc(-n9c%10ccc(C(C)(C)C)cc%10c%10cc(C(C)(C)C)ccc%109)cc8)cc7)s6)s5)s4)s3)cc2)c2ccc(-n3c4ccc(C(C)(C)C)cc4c4cc(C(C)(C)C)ccc43)cc2)cc1
absorption maximum (in ClCCl): 450 nm

CCCCCCCCCCCCNc1cccc2[n+]1[B-](F)(F)n1c(c3cccc4cccc1c43)=N2
absorption maximum (in C1CCOC1): 498 nm | absorption maximum (in CC#N): 493 nm | absorption maximum (in CCCCCC): 496 nm | absorption maximum (in Cc1ccccc1): 500 nm | absorption maximum (in ClCCl): 497 nm and 467 nm

CCOC(=O)c1cc(C(=O)OCC)c2cc(OC)ccc2n1
absorption maximum (in CCO): 355 nm

CN(C)c1ccc(-c2nc(-c3ccccc3)n3ccccc23)cc1
absorption maximum (in ClC(Cl)Cl): 314 nm

COc1ccc(-c2csc(/C(C#N)=C/c3ccccc3Cl)n2)cc1
absorption maximum (in CC#N): 372 nm

COc1c2ccccc2c(OC)c2c(C#C[Si](C(C)C)(C(C)C)C(C)C)c3cc4ccccc4cc3c(C#C[Si](C(C)C)(C(C)C)C(C)C)c12
absorption maximum (in ClCCl): 686 nm

CC(C)[Si](C#Cc1c2c(=O)c3ccccc3c2c(C#C[Si](C(C)C)(C(C)C)C(C)C)c2c(=O)c3ccccc3c12)(C(C)C)C(C)C
absorption maximum (in ClC(Cl)Cl): 525 nm

CCOC(=O)CCCCCn1c2ccc(N)cc2c(=O)c2cc(N)ccc21
absorption maximum (in O): 455 nm

CN(C)c1ccc(-n2c(-c3ccncc3)nc3nccnc32)cc1
absorption maximum (in CC#N): 309 nm
